{"source": "patent US5272177A", "about": "“Use of sebacic acid and derivatives thereof in enteral and parenteral nutrition and pharmaceutical compositions containing said compounds” (priority 1989, dated 1993)", "key": {"rabbits [1]": {"tested_on": "rabbits", "conditions": "rabbit, in vivo"}, "rats [2]": {"tested_on": "rats", "conditions": "rat, in vivo"}, "New Zealand rabbits": {"tested_on": "New Zealand rabbits", "experiment": "Acute toxicity test, oral and intraperitoneal, rabbits", "assay_type": "in vivo", "conditions": "oral and intraperitoneal administration; New Zealand rabbits (128)"}, "Wistar rats": {"tested_on": "Wistar rats", "experiment": "Acute toxicity test, oral and intraperitoneal, rats", "assay_type": "in vivo", "conditions": "oral and intraperitoneal administration; Wistar rats (128)"}, "[3]": {"conditions": "human, in vivo"}, "clinical [4]": {"experiment": "clinical", "conditions": "human, in vivo, iv"}, "healthy male volunteers": {"tested_on": "healthy male volunteers", "experiment": "Respiratory and metabolic parameters by indirect calorimetry during infusion", "assay_type": "in vivo", "experimental": "Respiratory and metabolic parameters were evaluated by indirect calorimetry from the beginning of the infusion for 210 minutes."}, "[5]": {"experiment": "Toxicity (general statement)"}, "clinical [6]": {"experiment": "clinical", "conditions": "human, in vivo, iv", "remark": "listed apart in the source"}, "rabbits [7]": {"tested_on": "rabbits", "conditions": "rabbit, in vivo", "description": "(§1) Similarly, subacute and chronic toxicities were studied in 40 rats (20 male and 20 female) and 40 rabbits (20 male and 20 female) that had been administered sebacic acid formulated into pellets.", "remark": "listed apart in the source"}, "rats [8]": {"tested_on": "rats", "conditions": "rat, in vivo", "description": "as §1", "remark": "listed apart in the source"}, "rats [9]": {"tested_on": "rats", "conditions": "rat, in vivo", "remark": "listed apart in the source"}, "rabbits [10]": {"tested_on": "rabbits", "conditions": "rabbit, in vivo", "remark": "listed apart in the source"}}, "data": [{"smiles": "O=C([O-])CCCCCCCCC(=O)[O-].[K+].[K+]", "note": "[potassium sebacate]", "values": [{"measurement": "Acute or chronic toxic effects", "setting": "rabbits [1]", "value": "do not exhibit particular acute or chronic toxic effects"}, {"measurement": "Acute or chronic toxic effects", "setting": "rats [2]", "value": "do not exhibit particular acute or chronic toxic effects"}]}, {"smiles": "O=C([O-])CCCCCCCCC(=O)[O-].[Na+].[Na+]", "note": "[disodium sebacate]", "values": [{"measurement": "LD50", "setting": "New Zealand rabbits", "value": "did not allow LD50 to be assessed"}, {"measurement": "Acute or chronic toxic effects", "setting": "rabbits [1]", "value": "do not exhibit particular acute or chronic toxic effects"}, {"measurement": "Acute or chronic toxic effects", "setting": "rats [2]", "value": "do not exhibit particular acute or chronic toxic effects"}, {"measurement": "LD50", "setting": "Wistar rats", "value": "did not allow LD50 to be assessed"}]}, {"smiles": "O=C(O)CCCCCCCCC(=O)O", "note": "[sebacate]", "values": [{"measurement": "Tissue fixation", "setting": "[3]", "value": "good tissue fixation"}, {"measurement": "Tmax", "setting": "clinical [4]", "value": 3, "unit": "h"}, {"measurement": "clearance", "setting": "clinical [4]", "value": 99.3, "unit": "mL/min"}, {"measurement": "half-life", "setting": "clinical [4]", "value": "0.34 ± 0.06", "unit": "h"}, {"measurement": "Vd", "setting": "clinical [4]; Volume of the central compartment", "value": "2.79 ± 0.54", "unit": "L"}, {"measurement": "Vd", "setting": "clinical [4]; Volume of tissue compartment", "value": "3.72 ± 0.14", "unit": "L"}, {"measurement": "Percent of calories derived from lipids", "setting": "healthy male volunteers; during and after the infusion, from -0.13±13.3", "value": "52.1±26.2", "unit": "%"}, {"measurement": "CO2 production (VCO2)", "setting": "healthy male volunteers; end of the infusion, basal 147.7±27.3", "value": "123.7±25.0", "unit": "ml/min/m^2"}, {"measurement": "Respiratory quotient (RQ)", "setting": "healthy male volunteers; from 0.96±0.04, decreased significantly", "value": "0.81±0.06"}, {"measurement": "O2 consumption (VO2)", "setting": "healthy male volunteers; time 180 min, time 0: 154.3±28.3", "value": "155.3±39.5", "unit": "ml/min/m^2"}]}, {"smiles": "O=C(O)CCCCCCCCC(=O)O", "note": "[sebacic acid]", "values": [{"measurement": "Energy production", "setting": "human", "value": 6.64, "unit": "kcal/g"}, {"measurement": "Oxidation in the body", "setting": "in vivo", "value": "completely oxidized in the body to CO2 and H2 O"}, {"measurement": "Tubular secretion", "setting": "[3]", "value": "a tubular secretion of sebacic acid had taken place"}, {"measurement": "Toxicity", "setting": "[5]", "value": "Neither sebacic acid nor its derivatives according to the present invention are toxic"}, {"measurement": "dose excreted", "setting": "clinical [6]", "value": "< 16", "unit": "%"}, {"measurement": "Biological parameters (haematic values, growing curves, histologic samples)", "setting": "rabbits [7]", "value": "No significant difference in biological parameters"}, {"measurement": "Biological parameters (haematic values, growing curves, histologic samples)", "setting": "rats [8]", "value": "No significant difference in biological parameters"}, {"measurement": "Fetal development", "setting": "rats [9]", "value": "fetal development was absolutely normal"}, {"measurement": "Fetal toxicity, teratogenesis and neonatal toxicity", "setting": "rats [9]", "value": "did not allow any toxicity effect to be detected"}, {"measurement": "Teratogenic effect", "setting": "rats [9]", "value": "no teratogenic effect was ever noticed"}, {"measurement": "Fetal development", "setting": "rabbits [10]", "value": "fetal development was absolutely normal"}, {"measurement": "Fetal toxicity, teratogenesis and neonatal toxicity", "setting": "rabbits [10]", "value": "did not allow any toxicity effect to be detected"}, {"measurement": "Teratogenic effect", "setting": "rabbits [10]", "value": "no teratogenic effect was ever noticed"}]}]}
